Where two headings read alike, the source gives them in different places.
Biological target: T1, human RXFP1 receptor (Homo sapiens, UniProt Q9HBX9)
T1 construct: expressed in transfected cells
T1 sequence (Q9HBX9 1-757): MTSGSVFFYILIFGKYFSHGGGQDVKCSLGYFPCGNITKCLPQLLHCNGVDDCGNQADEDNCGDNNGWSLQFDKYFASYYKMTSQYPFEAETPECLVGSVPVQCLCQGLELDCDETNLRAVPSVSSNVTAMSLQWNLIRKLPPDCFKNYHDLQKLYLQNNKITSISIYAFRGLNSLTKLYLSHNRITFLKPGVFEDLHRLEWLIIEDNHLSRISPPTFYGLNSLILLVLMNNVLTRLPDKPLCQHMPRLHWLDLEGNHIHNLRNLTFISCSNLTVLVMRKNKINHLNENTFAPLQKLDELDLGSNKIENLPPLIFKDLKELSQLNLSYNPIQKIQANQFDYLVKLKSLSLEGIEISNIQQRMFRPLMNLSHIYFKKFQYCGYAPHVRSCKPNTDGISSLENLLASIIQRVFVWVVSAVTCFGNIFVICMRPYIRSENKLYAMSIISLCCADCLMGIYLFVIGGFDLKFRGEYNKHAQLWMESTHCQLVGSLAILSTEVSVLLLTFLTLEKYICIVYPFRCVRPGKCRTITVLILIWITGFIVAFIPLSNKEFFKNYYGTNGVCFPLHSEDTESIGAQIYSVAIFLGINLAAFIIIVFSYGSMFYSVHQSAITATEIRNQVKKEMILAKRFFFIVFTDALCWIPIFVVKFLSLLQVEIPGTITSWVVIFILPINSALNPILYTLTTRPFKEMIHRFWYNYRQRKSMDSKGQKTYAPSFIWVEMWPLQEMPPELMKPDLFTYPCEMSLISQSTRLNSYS
Experiment: Intracellular cAMP accumulation assay
Type: cell-based

EC50 (CHO-K1 cells stably expressing human RXFP1, 10 min at 37° C., HTRF cAMP, average, read-out: hRXFP1/CHO-K1 cAMP EC50 (nM, avg)) [nM]	SMILES	EC50 [nM]
	CC[C@H](C)[C@@H]1NC(=O)[C@H](C)NC(=O)[C@H]([C@@H](C)CC)NC(=O)[C@H](CCC(N)=O)NC(=O)[C@H](C)NC(=O)[C@H](CCCNC(=N)N)NC(=O)[C@H](C(C)C)NC(=O)[C@H](CC(C)C)NC(=O)[C@H](CCC(=O)O)NC(=O)[C@H](CCCNC(=N)N)NC(=O)CNC(=O)[C@@H](NC(=O)[C@H](CC(C)C)NC(=O)[C@H](CCCCN)NC(=O)[C@@H](NC(=O)[C@@H](NC(=O)[C@H](CCC(=O)O)NC(=O)[C@H](CCC(=O)O)NC(=O)[C@H](CCSC)NC(=O)[C@H](Cc2c[nH]c3ccccc23)NC(=O)[C@H](CO)NC(=O)[C@H](C)N)C(C)C)[C@@H](C)CC)CSSC[C@@H]2NC(=O)[C@@H](NC(=O)[C@H](CCCCN)NC(=O)[C@H](CC(N)=O)NC(=O)[C@H](C)NC(=O)[C@H](CC(C)C)NC(=O)[C@H](C)NC(=O)[C@H](CO)NC(=O)[C@H](Cc3ccc(O)cc3)NC(=O)[C@H](CC(C)C)NC(=O)[C@@H](N)Cc3ccc(C(C)=NOCCNC(=O)[C@H](CCCCN)NC(=O)[C@H](CCCCN)NC(=O)[C@H](CO)NC(=O)CNC(=O)CNC(=O)[C@H](CO)NC(=O)CNC(=O)CNC(=O)[C@H](CCC(=O)O)NC(=O)CCCCCCCCCCCCC(=O)O)cc3)CSSC[C@H](NC(=O)CNC(=O)[C@H](C(C)C)NC(=O)[C@H](Cc3c[nH]cn3)NC2=O)C(=O)N[C@@H]([C@@H](C)O)C(=O)N[C@@H](CCCCN)C(=O)N[C@@H](CCCNC(=N)N)C(=O)N[C@@H](CO)C(=O)N[C@@H](CC(C)C)C(=O)N[C@@H](C)C(=O)N[C@@H](CCCNC(=N)N)C(=O)N[C@@H](Cc2ccccc2)C(=O)N[C@H](C(=O)O)CSSC[C@@H](C(=O)NCC(=O)N[C@@H](CCSC)C(=O)N[C@@H](CO)C(=O)N[C@H](C(=O)N[C@@H](Cc2c[nH]c3ccccc23)C(=O)N[C@@H](CO)C(=O)O)[C@@H](C)O)NC1=O [AQ1-KKSGGSGG-Glu^α-C13-COOH]	0.27
	CC[C@H](C)[C@@H]1NC(=O)[C@H](C)NC(=O)[C@H]([C@@H](C)CC)NC(=O)[C@H](CCC(N)=O)NC(=O)[C@H](C)NC(=O)[C@H](CCCNC(=N)N)NC(=O)[C@H](C(C)C)NC(=O)[C@H](CC(C)C)NC(=O)[C@H](CCC(=O)O)NC(=O)[C@H](CCCNC(=N)N)NC(=O)CNC(=O)[C@@H](NC(=O)[C@H](CC(C)C)NC(=O)[C@H](CCCCN)NC(=O)[C@@H](NC(=O)[C@@H](NC(=O)[C@H](CCC(=O)O)NC(=O)[C@H](CCC(=O)O)NC(=O)[C@H](CCSC)NC(=O)[C@H](Cc2c[nH]c3ccccc23)NC(=O)[C@H](CO)NC(=O)[C@H](C)N)C(C)C)[C@@H](C)CC)CSSC[C@@H]2NC(=O)[C@@H](NC(=O)[C@H](CCCCN)NC(=O)[C@H](CC(N)=O)NC(=O)[C@H](C)NC(=O)[C@H](CC(C)C)NC(=O)[C@H](C)NC(=O)[C@H](CO)NC(=O)[C@H](Cc3ccc(O)cc3)NC(=O)[C@H](CC(C)C)NC(=O)[C@@H](N)Cc3ccc(C(C)=NOCCNC(=O)[C@H](CCCCN)NC(=O)[C@H](CCCCN)NC(=O)[C@H](CO)NC(=O)CNC(=O)CNC(=O)[C@H](CO)NC(=O)CNC(=O)CNC(=O)CC[C@H](NC(=O)CCCCCCCCCCCCC(=O)O)C(=O)O)cc3)CSSC[C@H](NC(=O)CNC(=O)[C@H](C(C)C)NC(=O)[C@H](Cc3c[nH]cn3)NC2=O)C(=O)N[C@@H]([C@@H](C)O)C(=O)N[C@@H](CCCCN)C(=O)N[C@@H](CCCNC(=N)N)C(=O)N[C@@H](CO)C(=O)N[C@@H](CC(C)C)C(=O)N[C@@H](C)C(=O)N[C@@H](CCCNC(=N)N)C(=O)N[C@@H](Cc2ccccc2)C(=O)N[C@H](C(=O)O)CSSC[C@@H](C(=O)NCC(=O)N[C@@H](CCSC)C(=O)N[C@@H](CO)C(=O)N[C@H](C(=O)N[C@@H](Cc2c[nH]c3ccccc23)C(=O)N[C@@H](CO)C(=O)O)[C@@H](C)O)NC1=O [AQ1-KKSGGSGG-Glu^γ-C13-COOH]	0.34
0.32	CC[C@H](C)[C@@H]1NC(=O)[C@H](C)NC(=O)[C@H]([C@@H](C)CC)NC(=O)[C@H](CCC(N)=O)NC(=O)[C@H](C)NC(=O)[C@H](CCCNC(=N)N)NC(=O)[C@H](C(C)C)NC(=O)[C@H](CC(C)C)NC(=O)[C@H](CCC(=O)O)NC(=O)[C@H](CCCNC(=N)N)NC(=O)CNC(=O)[C@@H](NC(=O)[C@H](CC(C)C)NC(=O)[C@H](CCCCN)NC(=O)[C@@H](NC(=O)[C@@H](NC(=O)[C@H](CCC(=O)O)NC(=O)[C@H](CCC(=O)O)NC(=O)[C@H](CCSC)NC(=O)[C@H](Cc2c[nH]c3ccccc23)NC(=O)[C@H](CO)NC(=O)[C@H](C)N)C(C)C)[C@@H](C)CC)CSSC[C@@H]2NC(=O)[C@@H](NC(=O)[C@H](CCCCN)NC(=O)[C@H](CC(N)=O)NC(=O)[C@H](C)NC(=O)[C@H](CC(C)C)NC(=O)[C@H](C)NC(=O)[C@H](CO)NC(=O)[C@H](Cc3ccc(O)cc3)NC(=O)[C@H](CC(C)C)NC(=O)[C@@H](N)Cc3ccc(/C(C)=N/OCCNC(=O)CN(C)C(=O)CN(C)C(=O)CN(C)C(=O)CN(C)C(=O)[C@H](CO)NC(=O)CC[C@H](NC(=O)CCCCCCCCCCCCC(=O)O)C(=O)O)cc3)CSSC[C@H](NC(=O)CNC(=O)[C@H](C(C)C)NC(=O)[C@H](Cc3c[nH]cn3)NC2=O)C(=O)N[C@@H]([C@@H](C)O)C(=O)N[C@@H](CCCCN)C(=O)N[C@@H](CCCNC(=N)N)C(=O)N[C@@H](CO)C(=O)N[C@@H](CC(C)C)C(=O)N[C@@H](C)C(=O)N[C@@H](CCCNC(=N)N)C(=O)N[C@@H](Cc2ccccc2)C(=O)N[C@H](C(=O)O)CSSC[C@@H](C(=O)NCC(=O)N[C@@H](CCSC)C(=O)N[C@@H](CO)C(=O)N[C@H](C(=O)N[C@@H](Cc2c[nH]c3ccccc23)C(=O)N[C@@H](CO)C(=O)O)[C@@H](C)O)NC1=O [AQ1-Sar-Sar-Sar-Sar-Ser-Glu^γ-C13-COOH]	
	CC[C@H](C)[C@@H]1NC(=O)[C@H](C)NC(=O)[C@H]([C@@H](C)CC)NC(=O)[C@H](CCC(N)=O)NC(=O)[C@H](C)NC(=O)[C@H](CCCNC(=N)N)NC(=O)[C@H](C(C)C)NC(=O)[C@H](CC(C)C)NC(=O)[C@H](CCC(=O)O)NC(=O)[C@H](CCCNC(=N)N)NC(=O)CNC(=O)[C@@H](NC(=O)[C@H](CC(C)C)NC(=O)[C@H](CCCCN)NC(=O)[C@@H](NC(=O)[C@@H](NC(=O)[C@H](CCC(=O)O)NC(=O)[C@H](CCC(=O)O)NC(=O)[C@H](CCSC)NC(=O)[C@H](Cc2c[nH]c3ccccc23)NC(=O)[C@H](CO)NC(=O)[C@H](C)N)C(C)C)[C@@H](C)CC)CSSC[C@@H]2NC(=O)[C@@H](NC(=O)[C@H](CCCCN)NC(=O)[C@H](CC(N)=O)NC(=O)[C@H](C)NC(=O)[C@H](CC(C)C)NC(=O)[C@H](C)NC(=O)[C@H](CO)NC(=O)[C@H](Cc3ccc(O)cc3)NC(=O)[C@H](CC(C)C)NC(=O)[C@@H](N)Cc3ccc(/C(C)=N/OCCNC(=O)CCC(=O)NCCCNCCCCNCCCNC(=O)CC[C@H](NC(=O)CCCCCCCCCCCCCC(=O)O)C(=O)O)cc3)CSSC[C@H](NC(=O)CNC(=O)[C@H](C(C)C)NC(=O)[C@H](Cc3c[nH]cn3)NC2=O)C(=O)N[C@@H]([C@@H](C)O)C(=O)N[C@@H](CCCCN)C(=O)N[C@@H](CCCNC(=N)N)C(=O)N[C@@H](CO)C(=O)N[C@@H](CC(C)C)C(=O)N[C@@H](C)C(=O)N[C@@H](CCCNC(=N)N)C(=O)N[C@@H](Cc2ccccc2)C(=O)N[C@H](C(=O)O)CSSC[C@@H](C(=O)NCC(=O)N[C@@H](CCSC)C(=O)N[C@@H](CO)C(=O)N[C@H](C(=O)N[C@@H](Cc2c[nH]c3ccccc23)C(=O)N[C@@H](CO)C(=O)O)[C@@H](C)O)NC1=O [AQ1-Spermine-Glu^γ-C14-COOH]	0.39
